This note sets out measurements from US10875871B2, “Photosensitizer” (Tampereen Korkeakoulusäätiö sr, priority 2016, dated 2020).

Molecules are shown by their SMILES.

In one series the test system is E. coli. The series is described as follows: Antimicrobial inactivation under consumer LED lamp. In kind it is cell-based, Escherichia coli. To be noted: dyed filter paper, 1 h illumination from LED lamp. Here is the method: (§1) The antimicrobial efficiency of the dye was confirmed by CFU method using microbes E. coli MG1655 (E. coli Genetic Resources at Yale) and A. baylyi ADP1 (ATCC 33305). […] The microplate was illuminated in the solar simulator for 1 hour. UV-IR radiations were cut off using a combination of KG3 band pass filter (315-750 nm transmittance) and ? c-17 yellow filter (transmittance >485 nm). Similarly, light control samples were prepared by depositing microbial medium over dyed and un-dyed samples by covering microplate with aluminum foil for 1 h at room temperature. After 1 h of illumination or incubation, the microbes were extracted with LB medium (10 g/l tryptone, 5 g/l yeast extract, 5 g/l NaCl) (975 μl) and serial dilutions were made from each extract. The dilutions were then plated on LA agar plates and incubated at 30° C. overnight. The number of colonies grown on the agar plate was counted and CFUs per milliliter were calculated from it.
(§2) The spectrum of light emitted from the lamp prior to the experiments was measured. […] In addition, the power density of the lamp was also measured at different distances. […] The absorptance of phthalocyanine Pc4 and porphyrin ZnPf papers were calculated from reflectance and transmittance measurement of dyed papers using integrating sphere (IS) detector. The absorptance profiles were very similar to the absorbance measurement in solution. […]

For another series, the system named is A. baylyi. The series is described as follows: Antimicrobial inactivation under consumer LED lamp. To be noted: dyed filter paper, 1 h illumination from LED lamp. Format: cell-based, Acinetobacter baylyi. The method, then: as §1, with “The microplate was illuminated in the solar simulator for 1 hour.” left out
as §2

A short description of series [1]: Leeching test of dyed paper in PBS buffer. In kind it is physicochemical. Here is the method:
Stability of the dye Pc4 against was tested with PBS buffer pH 7.2. The absorbance and emission of PBS buffer incubated with dye papers were measured for checking the leeching (FIGS. 9a and b). […] Absorbance and emission of PBS buffer from each vial was measured after 1 h to check the leeching of dyes from papers.

Turning to `C[n+]1ccc(-c2c3nc(c(-c4cc[n+](C)cc4)c4ccc([nH]4)c(-c4cc[n+](C)cc4)c4nc(c(-c5cc[n+](C)cc5)c5ccc2[nH]5)C=C4)C=C3)cc1.I.I.I.I.[Zn+2]` [ZnPf, Zn(II)tetrakis[methylpyridinium iodide]porphyrin, reference compound], the inactivation of microorganisms entry with E. coli and in the series on A. baylyi was “complete inactivation” throughout. Also, the “absorbance of PBS extract of dyed paper (leeching)” value in series [1] (28 mg dyed paper in 4 ml PBS pH 7.2, 1 hour, room temperature) was “strong absorption peak at 422 nm”. In addition, the “emission of PBS extract of dyed paper (leeching)” value in series [1] (PBS pH 7.2, excited at 422 nm, after 1 hour of incubation) was “intense emission peak”.
